Test results taken from patent US9555061B2, “Synthesis and analysis of compounds capable of inducing differentiation of human mesenchymal stems cells into hepatocytes” (National University Corporation Torrori University, priority 2011, dated 2017).

Legend:
[1] = system: Wnt/β-catenin signaling pathway; experiment: Ability of inhibiting Wnt/β-catenin pathway, luciferase assay (UE7T-13); format: cell-based, human; details: 8 days after the treatment; pTCF4-CMV-luciferase reporter
Text: FIG. 3 is a schematic diagram illustrating how to establish a human mesenchymal stem cell stably expressing a β-catenin/TCF4/luciferase reporter gene. FIG. 3 illustrates how to construct pTCF4-CMVpro-GL4.20 plasmid by using a luciferase expression vector. The pTCF4-CMVpro-GL4.20 plasmid contains three TCF4 sequences […] upstream of a CMV promoter to express luciferase. In addition, pCMVpro-GL4.20 plasmid was constructed as a control. The resulting plasmids were each linearized, introduced into UE7T-13 by electroporation, and selected using puromycin (0.25 μg/ml) supplemented in a medium. Puromycin-resistant cells were cloned and used for a luciferase assay.
The cell line having a vector stably expressing luciferase was seeded on a 24-well plate, and was cultured at 37° C. At the next day, the medium was changed to a medium containing IC-2, etc., and the cell line was further cultured at 37° C. After that, at days 1, 4, and 8, a luciferase assay system (Promega) was used and the luciferase activity was read with a fluorescence plate reader (ARVO) at a wavelength of 556 nm.

UE7T-13 cells [2] = experiment: Proliferation potential (toxicity), MTT assay (UE7T-13); details: for concentration with very low cell toxicity toward UE7T-13 cells: days 2, 4, 8 of treatment
UE7T-13 cells [3] = experiment: RT-PCR of genes encoding liver-specific secretory proteins and cytokines (UE7T-13); format: cell-based, human; details: hexachlorophene 0.8 μM or IC-2 15 μM; days 8, 16, 24
Procedure: Bone marrow-derived mesenchymal stem cells (UE7T-13 cells) were treated with a compound, hexachlorophene (H4625-25G; Sigma-Aldrich, Inc.) or IC-2. At that time, gene expression of each of liver-specific secretory proteins and cytokines was evaluated. […] This time point was set to day 0.
At the next day corresponding to day 1, the medium was changed to DMEM containing hexachlorophene at a final concentration of 0.8 μM or IC-2 at a final concentration of 15 μM. […] After that, the medium was replaced twice during 8 days, and the cells were subcultured every 8 days. Then, the similar operation was carried out until day 24. At days 8, 16, and 24 after the initiation of the induction, TRIzol (Invitrogen) was used to extract total RNA according to the attached instruction. After the extraction, deoxyribonuclease (Nippon Gene) was added, and the mixture was incubated at 37° C. for 30 min to remove DNA. In a reverse transcription reaction, SuperScriptII Reverse Transcriptase (Invitrogen) and Oligo(dT)15 primer were added to 1 μg of RNA to convert it into cDNA. In a RT-PCR method, the cDNA was diluted by 5 times. Next, 1 μl of the cDNA was used as a template. Then, rTaq DNA polymerase (TOYOBO) was used to amplify the cDNA. MQ water was used as a negative control. cDNA from Huh-7 or UE7T-13 cells was used as a positive control. […]

[4] = system: clinical specimen-derived mesenchymal stem cells; experiment: RT-PCR of hepatocyte differentiation marker in clinical specimen-derived mesenchymal stem cells; format: cell-based, human; details: hexachlorophene 4 μM, HC-2 20 μM, PN-3-13 20 μM, IC-2 40 μM
Procedure: A fresh bone marrow aspirate was collected under informed consent from a patient (a person) with osteoarthritis who underwent replacement arthroplasty at the Department of Orthopedic Surgery, Tottori University Hospital. This aspirate was subjected to density gradient centrifugation using ficoll (Amersham Biosciences) to separate bone marrow mononuclear cells (FIG. 31). These bone marrow mononuclear cells were suspended in 1 ml of Hanks' balanced salt solution (HBSS, Gibco, Life Technologies Corp.) supplemented with a 100-fold diluted APC-labeled anti-CD90 antibody, a 407-fold diluted PE-labeled anti-CD271 antibody, and 2% fetal bovine serum (FBS, Defined, Thermo Fisher Scientific Inc.), and were stained on ice for 30 min. A flow cytometer (MoFlo XDP, Beckman Coulter Inc.) was used to selectively separate mesenchymal stem cells. The resulting cells were cultured in Dulbecco's Modified Eagle's Medium (Low Glucose, Gibco, Life Technologies Corp.) containing 20% FBS, 100 U/ml penicillin, […] streptomycin (Nacalai Tesque), and 20 ng/ml basic fibroblast growth factor (TRANS GENIC INC., Ltd.) on a 35-mm dish under conditions at 37° C. and 5% CO2. The medium was changed every 4 days. After colonies were formed, the cells were detached using a 0.025% trypsin/1 mM EDTA solution (Nacalai Tesque), split on a 100-mm dish, and cultured under conditions at 37° C. and 5% CO2. Then, the cells which were kept 70 to 80% confluent were detached using trypsin treatment. These cells in one dish were divided into four dishes for passage.
Cells were seeded on a 6-well plate at a cell density of 1.8×10^4 cells/cm^2. This day was designated as day 0. At day 1 corresponding to the next day, the medium was changed to a medium containing any one of hexachlorophene (at a final concentration of 4 μM), HC-2 (at a final concentration of 20 μM), PN-3-13 (at a final concentration of 20 μM), IC-2 (at a final concentration of 40 μM), and 0.1% DMSO. […]

[5] = system: CD90+CD271+ bone marrow-derived mesenchymal stem cells; experiment: Urea assay in CD90+CD271+ bone marrow-derived mesenchymal stem cells; format: cell-based, human; details: hexachlorophene 4 μM, PN-3-13 20 μM, IC-2 40 μM; day 8 plus 96 h ammonium chloride
Procedure: A urea assay was performed according to the following protocol. CD90^+CD271^+ bone marrow-derived mesenchymal stem cells were seeded on a 24-well plate at a cell density of 1.8×10^4 cells/cm^2. This day was designated as day 0. At day 1 corresponding to the next day, each medium was changed to a medium containing hexachlorophene (at a final concentration of 4 μM), HC-2 (at a final concentration of 20 μM), PN-3-13 (at a final concentration of 20 μM), IC-2 (at a final concentration of 40 μM), or 0.1% DMSO. At day 4, the medium was changed in a manner similar to that at day 1, and the cells were cultured until day 8. At day 8, the medium was removed, and replaced with a medium containing ammonium chloride (Nacalai Tesque) at a final concentration of 5 mM. The cells were further cultured for 96 h. At 96 h after the addition of ammonium chloride, levels of urea in the medium were determined using a QuantiChrom Urea Assay Kit (BioAssay Systems) according to the attached protocol by reading the absorbance at a wavelength of 520 nm with a microplate reader. The levels of urea were calculated based on a standard sample according to the attached calculation method. As a negative control for the urea assay, used were CD90^+CD271^+ bone marrow-derived mesenchymal stem cells that were seeded one day before the day of the immunostaining and were not subjected to the differentiation induction.

UE7T-13 cells [6] = experiment: Periodic acid-Schiff (PAS) staining (UE7T-13); format: cell-based, human
Procedure: (3-4) Periodic Acid-Schiff (PAS) Staining (UE7T-13) A cover glass (22×22 mm, […]) was sterilized with 70% EtOH and placed in a 6-well plate. Next, cells were seeded on the cover glass and cultured in a medium containing IC-2, etc. At 8, 16, and 24 days after the initiation of the culture, the cells were washed twice with PBS. Then, the cells were treated with 4% paraformaldehyde/PBS for 20 min and fixed onto the cover glass. As a negative control, 10 mg/ml of α-amylase (10 mg/ml; in 0.1 M phosphate buffer solution at pH 6.8) was added, and the cells were incubated therewith at 37° C. for 1 h to digest their glycogen. Subsequently, 1% aqueous periodic acid was used for oxidation treatment for 10 min. After that, the cells were treated with a Schiff reagent for 15 min to stain glycogen. Then, the cells were washed three times with aqueous sulfurous acid and were washed three times with distilled water. After their nuclei were stained with Mayer's hematoxylin, 50% glycerol diluted with PBS was used to mount the cover glass. Finally, the cells were observed under a light microscope. The cells which had been cultured with 0.1% DMSO were used as a control.

O=C(N/N=C/c1cccc2ccccc12)c1ccccc1Oc1ccccc1 [PN-3-4, N′-[(E)-1-naphtylmethylidene]-2-phenoxybenzohydrazide]
concentration that significantly inhibited the Wnt/β-catenin signaling pathway [1]: ≥ 20 µM
concentration with very low cell toxicity toward UE7T-13 cells (UE7T-13 cells [2]): ≤ 30 µM

Oc1c(Cl)cc(Cl)c(Cl)c1Cc1c(O)c(Cl)cc(Cl)c1Cl [hexachlorophene, reference compound]
expression of a plurality of the liver-specific secretory proteins and cytokines (UE7T-13 cells [3]): increased levels of expression
expression of albumin [4]: induced
cellular urea synthesis compared with negative control (0.1% DMSO) [5]: apparent increase

Cc1ccc(C=NNC(=O)c2ccccc2Oc2ccccc2)o1 [PNU-74654, N-[(5-methyl-2-furyl)methylideneamino]-2-phenoxy-benzamide]
intracellular glycogen accumulation compared with negative control (0.1% DMSO) (UE7T-13 cells [6]): did not increase

Cc1ccc(/C=N/NC(=O)c2cccc(Oc3ccccc3)c2)o1 [PN-1-2, N′-[(E)-(5-methyl-2-fulyl)methylidene]-3-phenoxybenzohydrazide]
concentration that significantly inhibited the Wnt/β-catenin signaling pathway [1]: ≥ 3 µM
concentration at which proliferation potential did not remain (UE7T-13 cells [2]; day 8): 10 µM
concentration with very low cell toxicity toward UE7T-13 cells (UE7T-13 cells [2]): ≤ 40 µM
